Source: ChEMBL document CHEMBL3286345, “Synthesis and biological activity of new arenediyne-linked isoxazolidines” (2014)
The source made the active and inactive calls. The calls are words filed in the database; no cut-off is given here.

Key:
[1] = test system: SH-SY5Y; assay: Antiproliferative activity against human SH-SY5Y cells at 1 to 100 uM after 24 to 72 hrs by cell counting assay; assay type: functional, cell-based
[2] = test system: HT-29; assay: Cytotoxicity against human HT-29 cells at 50 to 100 uM after 24 to 72 hrs by LDH release assay; assay type: functional, cell-based
[3] = test system: SH-SY5Y; assay: Cytotoxicity against human SH-SY5Y cells at 50 to 100 uM after 24 to 72 hrs by LDH release assay; assay type: functional, cell-based
[4] = test system: HT-29; assay: Antiproliferative activity against human HT-29 cells at 100 uM after 48 hrs by MTT assay; assay type: functional, cell-based
[5] = test system: HT-29; assay: Antiproliferative activity against human HT-29 cells after 24 to 72 hrs by MTT assay; assay type: functional, cell-based
[6] = test system: HepG2; assay: Cytotoxicity against human HepG2 cells assessed as cell death at 1 to 100 uM after 24 to 72 hrs by trypan blue dye exclusion assay; assay type: functional, cell-based
[7] = test system: HT-29; assay: Cytotoxicity against human HT-29 cells assessed as cell death at 1 to 100 uM after 24 to 72 hrs by trypan blue dye exclusion assay; assay type: functional, cell-based
[8] = test system: HT-29; assay: Antiproliferative activity against human HT-29 cells at 50 uM after 48 to 72 hrs by MTT assay; assay type: functional, cell-based
[9] = test system: HepG2; assay: Antiproliferative activity against human HepG2 cells at 1 to 100 uM by MTT assay; assay type: functional, cell-based; details: TDE = time-dependent effect
[10] = test system: HT-29; assay: Antiproliferative activity against human HT-29 cells at 100 uM after 72 hrs by MTT assay; assay type: functional
[11] = test system: HepG2; assay: Antiproliferative activity against human HepG2 cells at 1 to 100 uM after 24 to 72 hrs by cell counting assay; assay type: functional, cell-based
[12] = test system: HT-29; assay: Antiproliferative activity against human HT-29 cells at 1 to 100 uM after 24 to 72 hrs by cell counting assay; assay type: functional, cell-based
[13] = test system: HepG2; assay: Cytotoxicity against human HepG2 cells at 50 to 100 uM after 24 to 72 hrs by LDH release assay; assay type: functional, cell-based
[14] = test system: SH-SY5Y; assay: Cytotoxicity against human SH-SY5Y cells assessed as cell death at 1 to 100 uM after 24 to 72 hrs by trypan blue dye exclusion assay; assay type: functional, cell-based
[15] = test system: HepG2; assay: Antiproliferative activity against human HepG2 cells after 24 to 72 hrs by MTT assay; assay type: functional, cell-based
[16] = test system: SH-SY5Y; assay: Antiproliferative activity against human SH-SY5Y cells after 24 to 72 hrs by MTT assay; assay type: functional, cell-based
[17] = test system: SH-SY5Y; assay: Antiproliferative activity against human SH-SY5Y cells at 1 to 100 uM by MTT assay; assay type: functional, cell-based; details: TDE = time-dependent effect
[18] = test system: HT-29; assay: Antiproliferative activity against human HT-29 cells at 1 to 100 uM by MTT assay; assay type: functional, cell-based; details: TDE = time-dependent effect
[19] = test system: HepG2; assay: Cytotoxicity against human HepG2 cells at 1 to 100 uM after 24 to 72 hrs by LDH release assay; assay type: functional, cell-based
[20] = test system: HepG2; assay: Antiproliferative activity against human HepG2 cells at 1 to 100 uM after 24 to 72 hrs by MTT assay; assay type: functional, cell-based
[21] = test system: HT-29; assay: Cytotoxicity against human HT-29 cells at 1 to 100 uM after 24 to 72 hrs by LDH release assay; assay type: functional, cell-based
[22] = test system: HT-29; assay: Antiproliferative activity against human HT-29 cells at 1 to 100 uM after 24 to 72 hrs by MTT assay; assay type: functional, cell-based
[23] = test system: SH-SY5Y; assay: Antiproliferative activity against human SH-SY5Y cells at 1 to 100 uM after 24 to 72 hrs by MTT assay; assay type: functional, cell-based
[24] = test system: SH-SY5Y; assay: Cytotoxicity against human SH-SY5Y cells at 1 to 100 uM after 24 to 72 hrs by LDH release assay; assay type: functional, cell-based
[25] = test system: HepG2; assay: Antiproliferative activity against human HepG2 cells at 100 uM after 72 hrs by MTT assay; assay type: functional, cell-based
[26] = test system: SH-SY5Y; assay: Antiproliferative activity against human SH-SY5Y cells at 100 uM after 72 hrs by MTT assay; assay type: functional, cell-based
[27] = test system: HT-29; assay: Antiproliferative activity against human HT-29 cells at 50 to 100 uM after 48 to 72 hrs by MTT assay; assay type: functional, cell-based

## CN1O[C@@H]2COCC#Cc3ccccc3C#CCOC[C@@H]2[C@@H]1CO[Si](c1ccccc1)(c1ccccc1)C(C)(C)C (racemic)
[1]
  Activity: Active
[2]
  Activity: Active
[3]
  Activity: Active
[4]
  Activity: Active
[5]
  Activity: Dose-dependent effect
[6]
  Activity: Active
[7]
  Activity: Active
[8]
  Activity: Active
[9]
  Activity: tde
[10]
  Activity: 63%
[11]
  Activity: Active
[12]
  Activity: Active
[13]
  Activity: Active
[14]
  Activity: Active
[15]
  Activity: Dose-dependent effect
[16]
  Activity: Dose-dependent effect
[17]
  Activity: tde
[18]
  Activity: tde

## CN1O[C@@H](OCC#Cc2ccccc2C#CCO)C[C@@H]1CO[Si](c1ccccc1)(c1ccccc1)C(C)(C)C (racemic)
[1]
  Activity: inactive
[19]
  Activity: inactive
[20]
  Activity: inactive
[21]
  Activity: inactive
[22]
  Activity: inactive
[11]
  Activity: inactive
[12]
  Activity: inactive
[23]
  Activity: inactive
[24]
  Activity: inactive

## CN1O[C@H](OCC#Cc2ccccc2C#CCO)C[C@@H]1CO (racemic)
[1]
  Activity: Active
[25]
  Activity: Active
[2]
  Activity: Active
[26]
  Activity: Active
[3]
  Activity: Active
[5]
  Activity: Dose-dependent effect
[6]
  Activity: Active
[7]
  Activity: Active
[9]
  Activity: tde
[11]
  Activity: Active
[12]
  Activity: Active
[13]
  Activity: Active
[14]
  Activity: Active
[15]
  Activity: Dose-dependent effect
[27]
  Activity: Active
[16]
  Activity: Dose-dependent effect
[17]
  Activity: tde
[18]
  Activity: tde

## CN1O[C@H](OCC#Cc2ccccc2C#CCO)C[C@@H]1CO[Si](c1ccccc1)(c1ccccc1)C(C)(C)C (racemic)
[1]
  Activity: inactive
[19]
  Activity: inactive
[20]
  Activity: inactive
[21]
  Activity: inactive
[22]
  Activity: inactive
[11]
  Activity: inactive
[12]
  Activity: inactive
[23]
  Activity: inactive
[24]
  Activity: inactive
